The source of these data is PMC12193374, “Exploring Carboxamide Derivatives as Promising Anticancer Agents: Design, In Vitro Evaluation, and Mechanistic Insights” (International Journal of Molecular Sciences, 2025).

In general, IC50 refers to the concentration at which inhibition is half-maximal.

Common to all, as to type: cell-based
Assay [1] concerns HCT-116 human colorectal carcinoma cells. The assay is described as follows: MTT antiproliferative assay, HCT-116. To be noted: for IC50: Homo sapiens, HCT-116, MTT, 72 h treatment, mean ± SD, read-out: IC50 (µM) ± S.D. HCT-116 Colon Cancer; for Selectivity index (IC50 normal fibroblast/IC50 HCT-116): fibroblasts/colon cancer, first value of the SI cell; for Selectivity for HCT-116 over MCF-7: ratio of MCF-7 to HCT-116 IC50. The procedure:
(§1) The proliferation inhibitory activities of the carboxamide derivatives 4-16 were tested in vitro using the MTT assay against the human cancer MCF-7, K-562, and HCT-116 cell lines in addition to normal human cells (dermal fibroblasts) to evaluate their putative selective cytotoxic activities. […] The human colorectal carcinoma (HCT-116), human breast adenocarcinoma (MCF-7), human chronic myelogenous leukemia (K-562), and human dermal fibroblast normal cell lines were purchased from were purchased from the American Type Culture Collection (ATCC) (Manassas, VA, USA) and stored in liquid nitrogen. Cells were passaged twice weekly upon reaching 70–80% confluency, and only low passage numbers (≤ 10) were used in all experiments. Mycoplasma contamination was monitored using the Lonza MycoAlert™ mycoplasma detection kit. Cells were sub-cultured and maintained with appropriate media: RPMI-1640 medium (Buffalo, New York, USA) was used to grow MCF-7, K-562 and HCT-116 cancer cells, while fibroblast cells were cultured in Iscove’s Modified Dulbecco’s medium (IMDM) (EuroClone S.p.A., Pero, MI, Italy). Both media were supplemented with 10% (v/v) heat-inactivated fetal bovine serum (FBS) (Gibco, CA, USA), 2 mM of L-Glutamine, 100 units/mL of Penicillin, and 100 μg/mL of Streptomycin (EuroClone, Italy). Cells were maintained at 37 °C in a humidified incubator with 5% CO2 (NuAire, Plymouth, MN, USA). The MTT colorimetric assay utilized in this study was previously described and adapted from Mosmann. The MTT regent [3-(4,5-dimethylthiazol-2-yl)-2,5-diphenyl tetrazolium bromide] was employed to evaluate the antiproliferative activities of carboxamides 4-16 against MCF-7, K-562, HCT-116, and dermal normal fibroblast cell lines. Cells (6–8 × 10^3 per well, 180 µL) were seeded into 96-well plates (Corning, New York, USA) and allowed to adhere overnight at 37 °C in a humidified 5% CO₂ incubator. Fresh top stock solutions of the test compounds (10 mM in DMSO) were then freshly prepared, followed by serial dilutions in the appropriate culture media before being added to the seeded cells. […] Initial screening for potential antiproliferative activity was carried out using two concentration points (10 µM and 50 µM) in triplicate over a 72-hour incubation period. […] Following 72 h of exposure, MTT solution (2 mg/mL in PBS, 50 µL per well) was added, and plates were incubated for an additional 4 h. The supernatant in each well was then removed, and the resulting formazan crystals were solubilized by adding DMSO (150 µL per well). Absorbance, measured as the optical density (OD), was recorded at 570 nm using a microplate reader (Thermo Fisher Scientific, Waltham, MA, USA). The detected signal intensity corresponds to metabolic activity, which directly correlates with the viable cell number. All experiments were performed in triplicate, and the results are presented as the mean ± standard deviation (SD). The IC50 values for antiproliferative activity were calculated using nonlinear regression analysis in GraphPad Prism software (GraphPad Prism version 9.0.0 for Windows, GraphPad Software, San Diego, California USA). Additionally, a two-way ANOVA test was conducted to analyze significant variations in IC50 values, with a significant level set at α = 0.05.
For orientation: Tetrazolium assays rely on reduction of a dye to a coloured formazan, in cell work by metabolically active cells.

Assay [2] relates to K-562 human chronic myelogenous leukemia cells. Kind of assay: MTT antiproliferative assay, K-562. To be noted: for IC50: Homo sapiens, K562, 72 h, MTT, 72 h treatment, mean ± SD, read-out: IC50 (µM) ± S.D. K-562 Leukemia; for Selectivity index (IC50 normal fibroblast/IC50 K-562): fibroblasts/leukemia, third value of the SI cell. On the procedure:
as §1

For assay [3], the system named is human dermal fibroblast normal cell line. The assay is described as follows: MTT assay, normal dermal fibroblasts. To be noted: 72 h treatment, read-out: IC50 (µM) ± S.D. Dermal Fibroblast Normal. On the procedure: as §1
Assay [4] relates to MCF-7 human breast adenocarcinoma cells. Kind of assay: MTT antiproliferative assay, MCF-7. To be noted: for IC50: Homo sapiens, MCF7, 72 h, read-out: IC50 (µM) ± S.D. MCF-7 Breast Cancer; for Selectivity index (IC50 normal fibroblast/IC50 MCF-7): fibroblasts/breast cancer, second value of the SI cell. On the procedure: as §1

`O=C(Nc1ccc([N+](=O)[O-])cc1)c1cc2ccccc2[nH]1` [Compound 8, N-(4-Nitrophenyl)-1H-indole-2-carboxamide]: the IC50 in assay [1] was 32 ± 0.83 µM; in assay [2], above 100 µM; in assay [3] it was above 100 µM; in assay [4] (MTT, 72 h treatment, mean ± SD), above 100 µM. Also, in assay [1], the “Selectivity index (IC50 normal fibroblast/IC50 HCT-116)” value is above 3.1. In addition, in assay [4] (MTT, 72 h treatment, mean ± SD), the “IC50 (µM) ± S.D. MCF-7 Breast Cancer” value is on record as “exceptional resistance”.

On to `O=C(Nc1cccc2c1C(=O)c1ccccc1C2=O)c1ccco1` [Compound 16, N-(9,10-Dihydro-9,10-dioxoanthracen-1-yl)-2-furamide], for which the IC50 in assay [1] is 3.11 ± 0.049 µM; in assay [2] it was above 100 µM; in assay [3] it was above 100 µM; in assay [4] (MTT, 72 h treatment, mean ± SD), 33.1 ± 1.66 µM. The “Selectivity index (IC50 normal fibroblast/IC50 HCT-116)” value in assay [1] was above 32.2. The “Selectivity for HCT-116 over MCF-7” value in assay [1] came out at 10.6 fold. Moreover, in assay [4], the “Selectivity index (IC50 normal fibroblast/IC50 MCF-7)” value is given as above 3.0.

As for `O=C(Nc1ccc(F)cc1)c1cc2ccccc2[nH]1` [Compound 6, N-(4-Florophenyl)-1H-indole-2-carboxamide], the 50% inhibitory concentration (IC50) in assay [1] is 25.4 ± 0.38 µM; in assay [2], 84.6 ± 4.23 µM; in assay [3] it was above 100 µM; in assay [4] (MTT, 72 h treatment, mean ± SD), 80.8 ± 4.04 µM. Besides, in assay [1], the “Selectivity index (IC50 normal fibroblast/IC50 HCT-116)” value is above 3.9. Moreover, in assay [2], the “Selectivity index (IC50 normal fibroblast/IC50 K-562)” value is reported as above 1.2. Moreover, the “Selectivity index (IC50 normal fibroblast/IC50 MCF-7)” value in assay [4] is listed as above 1.2.

For the compound `O=C(Nc1ccc2c(c1)C(=O)c1ccccc1C2=O)c1cc2ccccc2[nH]1` [Compound 14, N-(9,10-Dihydro-9,10-dioxoanthracen-2-yl)-1H-indole-2-carboxamide], the half-maximal inhibitory concentration (IC50) in assay [1] was 2.64 ± 0.07 µM; in assay [3], above 100 µM; in assay [4] (MTT, 72 h treatment, mean ± SD), 7.16 ± 0.36 µM. For the same compound, the “Selectivity index (IC50 normal fibroblast/IC50 HCT-116)” value in assay [1] is on record as above 37.9. Moreover, the “Selectivity index (IC50 normal fibroblast/IC50 K-562)” value in assay [2] is above 164. In addition, the “Selectivity index (IC50 normal fibroblast/IC50 MCF-7)” value in assay [4] is above 14.0.

Consider `O=C(Nc1ccc(Cl)cc1)c1cc2ccccc2[nH]1` [Compound 4, N-(4-Chlorophenyl)-1H-indole-2-carboxamide], for which the IC50 was 3.94 ± 0.03 µM in assay [1]; 0.61 ± 0.03 µM in assay [2]; above 100 µM in assay [3]; 10.6 ± 0.53 µM in assay [4] (MTT, 72 h treatment, mean ± SD). The “Selectivity index (IC50 normal fibroblast/IC50 HCT-116)” value in assay [1] is reported as above 25.4. Further, in assay [2], the “Selectivity index (IC50 normal fibroblast/IC50 K-562)” value was above 164. Besides, in assay [4], the “Selectivity index (IC50 normal fibroblast/IC50 MCF-7)” value is recorded as above 9.4.

Regarding `O=C(Nc1ccccn1)c1cc2ccccc2[nH]1` [Compound 10, N-(Pyridin-2-yl)-1H-indole-2-carboxamide], the IC50 in assay [1] is 1.01 ± 0.04 µM; in assay [2], above 100 µM; in assay [3] it was above 100 µM; in assay [4] (MTT, 72 h treatment, mean ± SD) it was 70.3 ± 3.52 µM. Also, the “Selectivity index (IC50 normal fibroblast/IC50 HCT-116)” value in assay [1] is above 99.4. Further, the “Selectivity for HCT-116 over MCF-7” value in assay [1] is reported as 69.6 fold. Further, in assay [4], the “Selectivity index (IC50 normal fibroblast/IC50 MCF-7)” value is reported as above 1.4.

For the compound `O=C(Nc1cccc2c1C(=O)c1ccccc1C2=O)c1cc2ccccc2[nH]1` [Compound 12, N-(9,10-Dihydro-9,10-dioxoanthracen-1-yl)-1H-indole-2-carboxamide], in assay [1], the half-maximal inhibitory concentration (IC50) stood at 3.98 ± 0.06 µM and the “Selectivity index (IC50 normal fibroblast/IC50 HCT-116)” value was above 25.1. In assay [2], the IC50 came to 0.33 ± 0.02 µM and the “Selectivity index (IC50 normal fibroblast/IC50 K-562)” value is reported as above 303. Moreover, the 50% inhibitory concentration (IC50) in assay [3] is above 100 µM. Besides, the “Selectivity index (IC50 normal fibroblast/IC50 MCF-7)” value in assay [4] is above 11.0.
